From patent publication US11806359B2 (priority 2020, dated 2023)
≈ marks a conversion by molar mass, not a printed value.

How the values were obtained:
ZIKV (PLCal_ZV strain) = assay: CPE-based antiviral assay, ZIKV, neutral red readout (Example 14); format: cell-based, Zikavirus; details: 6 days post infection
Experimental: A CPE-based antiviral assay was performed by infecting target cells in the presence or absence of test compositions, at a range of concentrations. […] cytopathic effects and cell death. […] For CPE-based assays, cell viability was determined with a neutral red readout. Viable cells incorporate neutral red in their lysosomes. Uptake of neutral red relies on the ability of live cells to maintain a lower pH inside their lysosomes than in the cytoplasm, and this active process requires ATP. Once inside the lysosome, the neutral red dye becomes charged and is retained intracellularly. […] The amount of neutral red in solution was quantified by reading the absorbance (optical density) of each well at 490 nm […]
Cytotoxic effects were evaluated in uninfected cells by comparing viability in the presence of inhibitors to the viability of mock-treated cells. Cytotoxicity was determined by an XTT viability assay, which was conducted at the same timepoint as the readout for the corresponding infection assay.
Test compositions were dissolved in 100% methanol. […] When possible, the EC50 and CC50 of the composition was determined for each assay using GraphPad Prism software. […]
Protection of ZIKV-induced cytopathic effect (CPE) with Neutral Red readout: For the ZIKV antiviral assay, the PLCal_ZV strain was used. […]

HTLV-1 [1] = assay: HTLV-1 replication and p19Gag particle release from SLB1 cells, Anti-HTLV-1 p19Gag ELISA; format: cell-based, human T-cell leukemia virus type-1; details: SLB1 cells, 10, 50, 100 μg/ml, 72 hrs
HTLV-1 [2] = assay: Infectivity of HTLV-1 particles from treated SLB1 cells on primary huPBMCs, p19Gag ELISA; format: cell-based, human T-cell leukemia virus type-1; details: even the lowest concentration (10 μg/ml); relative to vehicle control
HTLV-1 [3] = assay: HTLV-1 transmission in SLB1/huPBMC co-culture, p19Gag ELISA (Example 22); format: cell-based, human T-cell leukemia virus type-1; details: 15 min or 3 hrs pre-treatment, 72 hrs co-culture
SARS-CoV-2 [4] = assay: microbe, parasite or virus in culture; format: cell-based
SARS-CoV-2 [5] = assay: SARS-CoV-2 genome equivalents in supernatant by qRT-PCR (Example 39); format: cell-based; details: 24 hours-post infection, four highest doses
Source text: The Vero 81 cells described above were subjected to genome analysis determine whether the inhibition of SARS-CoV-2 was at the level of total or infectious particle production. RNA was extracted from the cell culture supernatants of the prophylactic study, and genomic equivalents were quantified via qRT-PCR (Example 39). The prophylactic effect of oleandrin, initially observed via infectious assay, was confirmed at the level of genome equivalents. […]
To quantify genome copies for the samples, 200 μl of sample was extracted with a 5:1 volume ratio of TRIzol LS (Ambion, Carlsbad, Calif.), utilizing standard manufacturers protocols and resuspending in 11 μl water. Extracted RNA were tested for SARS-CoV-2 by qRT-PCR following a previously published assay (26). Briefly, the N gene was amplified using the following primers and probe: forward primer [5′-[…]-3′] (SEQ ID NO. 1); reverse primer [5′-[…]-3′] (SEQ ID NO. 2); and probe [5′-FAM-[…]-TAMRA-3′; (SEQ ID NO. 3)]. […]

HIV-1 = details: Singh et al. 2013; cited from earlier work

SMILES: CO[C@H]1C[C@H](O[C@H]2CC[C@@]3(C)[C@H](CC[C@@H]4[C@@H]3CC[C@]3(C)[C@@H](C5=CC(=O)OC5)[C@@H](OC(C)=O)C[C@]43O)C2)O[C@@H](C)[C@@H]1O [oleandrin]
- efficacy against Zika virus (ZIKV (PLCal_ZV strain)): demonstrates efficacy
- HTLV-1 replication or release of p19Gag-containing virus particles (HTLV-1 [1]): does not significantly inhibit
- infectivity of newly-synthesized p19Gag-containing virus particles (HTLV-1 [2]): inhibited the infectivity
- transmission of HTLV-1 in co-culture (HTLV-1 [3]): inhibited the transmission of HTLV-1
- concentrations with substantial antiviral activity (SARS-CoV-2 [4]): above 0.01 microg/mL
- effect on titer (SARS-CoV-2 [4]): significant reduction in titer
- effect on titer compared to DMSO control (SARS-CoV-2 [4]): no significant effect
- viral titer (SARS-CoV-2 [4]): substantial reduction in viral titer
- viral titer at the two higher doses (SARS-CoV-2 [4]): essentially to or below the limit of detection
- EC50 (SARS-CoV-2 [4]; Severe acute respiratory syndrome coronavirus 2, 24 h): 12 ng/mL (≈ 0.0208 µM)
- EC50 (SARS-CoV-2 [4]; Severe acute respiratory syndrome coronavirus 2, 48 h): 7.07 ng/mL (≈ 0.0123 µM)
- SARS-CoV-2 genomes in the supernatant (SARS-CoV-2 [5]): significantly decreased
- toxicity to Vero cells (Vero cells): not overly toxic
- HIV-1 viral infectivity in vitro (HIV-1): inhibit viral infectivity in vitro
